Data published in article PMC11157491, “Novel Alaninamide Derivatives with Drug-like Potential for Development as Antiseizure and Antinociceptive Therapies—In Vitro and In Vivo Characterization” (ACS Chemical Neuroscience, 2024).

Assays:
mice [1] = assay: Maximal electroshock (MES) seizure test; type: in vivo; conditions: for responders at 100 mg/kg / ED50: Mus musculus, ip; for responders at 100 mg/kg / antiseizure protection in MES screening: 100 mg/kg i.p., 0.5 h; for responders at 100 mg/kg: read-out: MES: number of mice protected/number of mice tested (converted); for antiseizure protection in MES screening: four mice; for ED50: mice, pretreatment 0.5 h
Source text: (§1) Identification and profiling of new ASM candidate compounds are still largely based on predictive animal models of seizures/epilepsy, while a range of in silico and in vitro approaches (i.e., molecular modeling or high throughput screening, etc.) are increasingly used in the early stages of ASM discovery.[31] The Epilepsy Therapy Screening Program (ETSP) of the National Institute of Neurological Disorders and Stroke (NIH, Bethesda, MD) has enabled the discovery of several approved ASMs by focusing on the in vivo testing of compounds synthesized by both academic laboratories and industry.[32] The ETSP provides a broad panel of seizure tests (ca. 30 rodent models), but a subset of them is used for the initial screening of new compounds with potential antiseizure activity. The routinely used seizure models include: (i) the MES test, which is an experimental model of tonic–clonic seizures, (ii) the 6 Hz model (32 mA) of focal seizures, and (iii) the scPTZ model of generalized absence or myoclonic seizures.[33],[34] Consequently, in the current studies, all final compounds 21–36 and 45–48 were initially studied in the MES and the 6 Hz (32 mA) seizure models after intraperitoneal (i.p.) administration at a screening dose of 100 mg/kg in mice at a time point of 0.5 h (the screening group consisted of four mice, and the results obtained are summarized in Table S1).
(§2) These parameters were then used to calculate the protective indexes (PIs, PI = TD50/ED50), which describe the therapeutics window of potential drug candidates. The ED50, TD50, and PI values for the tested compounds together with data of their chemical prototypes KA-11 and KJ-5 and reference ASMs are summarized in Table 2.
(§3) The adult male Albino Swiss mice weighed between 22 and 26 g were used in the in vivo studies. They were housed under standardized housing conditions in colony cages and had free access to food as well as tap water. The animals were left to adapt under laboratory conditions for 7 days. All procedures involving animals and their care were performed in accordance with the current European Community and Polish legislation on animal experimentation.
(§4) In the initial screening studies, four mice per group were randomly assigned to each experimental group (each mouse was used only once). To evaluate the ED50 or TD50 values, four groups consisting of eight animals were injected with various doses of tested compounds. The protective indexes (PIs) for the compounds investigated and reference ASMs were calculated by dividing the TD50 value, as determined in the chimney test, by the respective ED50 value, as determined in the MES, scPTZ, or 6 Hz (32 or 44 mA) tests (PI = TD50/ED50). The PIs are a measure of the potential therapeutic window of the tested agent.
(§5) All substances were suspended in Tween 80 (1% aqueous solution) and administered i.p. as a single injection at a dose of 10 mL/kg. On each day of experimentation, fresh solutions were prepared. The detailed in vivo procedures are described elsewhere: the maximal electroshock seizure test (MES),[60] the subcutaneous pentylenetetrazole seizure test (scPTZ),[61] the 6 Hz psychomotor seizure model (32 and 44 mA),[62] and the chimney test.[63] The reference ASMs were purchased from commercial suppliers: VPA (Sigma-Aldrich, St. Louis, MO), LCS, and LEV (UCB Pharma, Braine l’Alleud, Belgium).

TRPV1 (VR1) (h) = molecular target: T1, TRPV1 (VR1) (h) (Homo sapiens, UniProt Q8NER1); assay: TRPV1 antagonist effect functional assay; type: cell-based; conditions: human recombinant CHO cells; for inhibition at 10 µM: read-out: % inhibition of control agonist response
T1 construct: Eurofins (contract assay)
T1 sequence (Q8NER1 whole entry): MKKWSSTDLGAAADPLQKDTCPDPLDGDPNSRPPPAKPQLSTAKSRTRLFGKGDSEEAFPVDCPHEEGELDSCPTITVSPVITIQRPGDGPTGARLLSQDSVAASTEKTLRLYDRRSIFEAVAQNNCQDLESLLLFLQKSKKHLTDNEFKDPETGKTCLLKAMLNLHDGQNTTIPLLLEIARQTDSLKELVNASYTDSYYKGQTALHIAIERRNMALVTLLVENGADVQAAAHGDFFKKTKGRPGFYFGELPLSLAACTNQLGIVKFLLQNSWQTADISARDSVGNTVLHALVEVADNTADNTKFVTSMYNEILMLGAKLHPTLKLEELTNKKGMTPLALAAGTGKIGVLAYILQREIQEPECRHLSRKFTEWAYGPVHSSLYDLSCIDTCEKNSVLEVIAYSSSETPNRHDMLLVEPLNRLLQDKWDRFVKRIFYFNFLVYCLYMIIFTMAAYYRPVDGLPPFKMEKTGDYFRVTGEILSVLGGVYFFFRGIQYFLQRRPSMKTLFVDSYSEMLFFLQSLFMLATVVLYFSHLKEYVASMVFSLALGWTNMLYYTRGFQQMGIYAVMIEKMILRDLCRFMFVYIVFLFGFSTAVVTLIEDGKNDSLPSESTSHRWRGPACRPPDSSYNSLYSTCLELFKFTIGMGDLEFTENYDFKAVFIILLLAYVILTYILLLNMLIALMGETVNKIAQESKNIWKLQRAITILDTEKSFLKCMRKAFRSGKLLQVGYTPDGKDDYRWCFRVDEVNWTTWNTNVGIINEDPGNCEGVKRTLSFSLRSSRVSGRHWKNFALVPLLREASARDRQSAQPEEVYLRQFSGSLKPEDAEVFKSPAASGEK
Experimental: For many years, the TRPV1 channel, permeable to calcium and sodium ions, has been recognized as a promising molecular target for novel analgesics.[19] […] Therefore, bearing in mind the involvement of TRPV1 in pain sensation and potentially in seizure induction, in the next step of the in vitro studies, the TRPV1 antagonist activity was determined for all compounds obtained (Table 6).
Binding/functional studies were carried out commercially in Eurofins Laboratories (Poitiers, France) and Eurofins Panlabs Discovery Services Taiwan, Ltd. (New Taipei City, Taiwan) using testing procedures that were reported previously (for details, see Table S2).
Table S2. Radioligand binding and functional assays. […]
TRPV1 (VR1) (h) (antagonist effect) […]
Assays were performed commercially in Eurofins Laboratories ( Poitiers, France) or Eurofins Panlabs Discovery Services
Taiwan, Ltd. (New Taipei City, Taiwan).

mice [2] = assay: 6 Hz (32 mA) psychomotor seizure model; type: in vivo; conditions: Mus musculus, ip; for responders at 100 mg/kg: 100 mg/kg i.p., 0.5 h; for ED50: mice, pretreatment 0.5 h
Source text: as §1, §2, §3, §4, §5

mice [3] = assay: Subcutaneous pentylenetetrazole (scPTZ) seizure test; type: in vivo; conditions: for protection in scPTZ screening / scPTZ: number of mice protected/number of mice tested: 100 mg/kg i.p.; for scPTZ: number of mice protected/number of mice tested: 0.5 h
Source text: as §2, §4, §5

[4] = four mice, read-out: protection in 6 Hz (32 mA) screening
[5] = read-out: 6 Hz (32 mA): number of mice protected/number of mice tested (converted)

Structure (SMILES) | responders at 100 mg/kg (mice [1]) [%] | inhibition at 10 µM (TRPV1 (VR1) (h)) [%] | responders at 100 mg/kg (mice [2]; [4]) [%] | responders at 100 mg/kg (mice [2]; [5]) [%] | melting point [°C] | protection in scPTZ screening (mice [3]) | scPTZ: number of mice protected/number of mice tested (mice [3]) | antiseizure protection in MES screening (mice [1]) [%] | ED50 (mice [1]) [mg/kg] | ED50 (mice [2]) [mg/kg] | ED50 (mice [3]; Mus musculus, ip, mice) [mg/kg] | Kb (TRPV1 (VR1) (h)) [µM]
CC(=O)NC(C)C(=O)N1CCN(c2ccccc2)CC1 (centres unmarked) [Compound 21, N-(1-oxo-1-(4-Phenylpiperazin-1-yl)propan-2-yl)acetamide] | 0 | 1.6 | 25 | 25 | 113.6 to 114.9 |  |  |  |  |  |  | 
CC(=O)NC(C)C(=O)N1CCN(c2cccc(Cl)c2)CC1 (centres unmarked) [Compound 22, N-(1-(4-(3-Chlorophenyl)piperazin-1-yl)-1-oxopropan-2-yl)acetamide] | 100 | 12.5 | 75 | 75 | 125.8 to 126.5 | 25% | 1/4 | 100 | 122 | 77.3 |  | 
CC(=O)NC(C)C(=O)N1CCN(c2ccc(Cl)cc2)CC1 (centres unmarked) [Compound 23, N-(1-(4-(4-Chlorophenyl)piperazin-1-yl)-1-oxopropan-2-yl)acetamide] | 0 | -4.6 |  | 0 | 144.9 to 145.8 |  |  |  |  |  |  | 
CC(=O)NC(C)C(=O)N1CCN(c2ccc(Cl)c(Cl)c2)CC1 (centres unmarked) [Compound 24, N-(1-(4-(3,4-Dichlorophenyl)piperazin-1-yl)-1-oxopropan-2-yl)acetamide] | 75 | 51.5 | 100 | 100 | 152.1 to 152.9 | 75% | 3/4 | 75 | > 150 | 41.4 | 116 | 4.5
CC(=O)NC(C)C(=O)N1CCN(c2cc(Cl)cc(Cl)c2)CC1 (centres unmarked) [Compound 25, N-(1-(4-(3,5-Dichlorophenyl)piperazin-1-yl)-1-oxopropan-2-yl)acetamide] | 75 | 8.1 | 75 | 75 | 164.6 to 165.4 | 50% | 2/4 | 75 | 52.9 | 56.1 |  | 
CC(=O)NC(C)C(=O)N1CCN(c2ccc(C(F)(F)F)cc2)CC1 (centres unmarked) [Compound 27, N-(1-oxo-1-(4-(4-(Trifluoromethyl)phenyl)piperazin-1-yl)propan-2-yl)acetamide] | 25 | -15.9 |  | 0 | 132.8 to 133.3 |  |  | 25 |  |  |  | 
CC(=O)NC(C)C(=O)N1CCN(c2cccc(Oc3ccccc3)c2)CC1 (centres unmarked) [Compound 29, N-(1-oxo-1-(4-(3-Phenoxyphenyl)piperazin-1-yl)propan-2-yl)acetamide] | 100 | 104 | 75 | 75 | 133.6 to 134.3 | no activity | 0/4 |  | 39.9 | 41.2 |  | 4.2
CC(NC(=O)c1ccccc1)C(=O)N1CCN(c2cccc(Cl)c2)CC1 (centres unmarked) [Compound 31, N-(1-(4-(3-Chlorophenyl)piperazin-1-yl)-1-oxopropan-2-yl)benzamide] | 0 | 4.6 |  | 0 | 177.8 to 178.5 |  |  |  |  |  |  | 
CC(NC(=O)c1ccccc1)C(=O)N1CCN(c2cccc(C(F)(F)F)c2)CC1 (centres unmarked) [Compound 32, N-(1-oxo-1-(4-(3-(Trifluoromethyl)phenyl)piperazin-1-yl)propan-2-yl)benzamide] | 0 | -16.1 | 25 | 25 | 165.8 to 166.5 |  |  |  |  |  |  | 
CCNC(=O)NC(C)C(=O)N1CCN(c2cccc(Cl)c2)CC1 (centres unmarked) [Compound 33, 1-(1-(4-(3-Chlorophenyl)piperazin-1-yl)-1-oxopropan-2-yl)-3-ethylurea] | 0 | -11.7 |  | 50 | 145.1 to 146.2 |  |  |  |  |  |  | 
CCNC(=O)NC(C)C(=O)N1CCN(c2cccc(C(F)(F)F)c2)CC1 (centres unmarked) [Compound 34, 1-Ethyl-3-(1-oxo-1-(4-(3-(trifluoromethyl)phenyl)piperazin-1-yl)propan-2-yl)urea] | 0 | -5.3 |  | 50 | 136.4 to 137.3 |  |  |  |  |  |  | 
CC(C)NC(=O)NC(C)C(=O)N1CCN(c2cccc(Cl)c2)CC1 (centres unmarked) [Compound 35, 1-(1-(4-(3-Chlorophenyl)piperazin-1-yl)-1-oxopropan-2-yl)-3-isopropylurea] | 0 | -11.9 |  | 50 | 147.4 to 148.2 |  |  |  |  |  |  | 
CC(C)NC(=O)NC(C)C(=O)N1CCN(c2cccc(C(F)(F)F)c2)CC1 (centres unmarked) [Compound 36, 1-Isopropyl-3-(1-oxo-1-(4-(3-(trifluoromethyl)phenyl)piperazin-1-yl)propan-2-yl)urea] | 25 | -13.6 | 25 | 25 | 144.5 to 145.4 |  |  | 25 |  |  |  | 
CC(=O)NC(C)C(=O)NC1CCN(c2ccccc2)C1 (centres unmarked) [Compound 45, 2-Acetamido-N-(1-phenylpyrrolidin-3-yl)propanamide] | 0 | -11.6 |  | 0 | 176.6 to 177.8 |  |  |  |  |  |  | 
CC(=O)NC(C)C(=O)NC1CCN(c2cccc(C(F)(F)F)c2)C1 (centres unmarked) [Compound 46, 2-Acetamido-N-(1-(3-(trifluoromethyl)phenyl)pyrrolidin-3-yl)propanamide] | 0 | -10 |  | 0 | 162.8 to 163.7 |  |  |  |  |  |  | 
CC(=O)NC(C)C(=O)NC1CCN(c2cccc(OC(F)(F)F)c2)C1 (centres unmarked) [Compound 47, 2-Acetamido-N-(1-(3-(trifluoromethoxy)phenyl)pyrrolidin-3-yl)propanamide] | 0 | -8.3 | 50 | 50 | 164.8 to 165.9 |  |  |  |  |  |  | 
CC(=O)NC(C)C(=O)NC1CCN(c2cccc(SC(F)(F)F)c2)C1 (centres unmarked) [Compound 48, 2-Acetamido-N-(1-(3-((trifluoromethyl)thio)phenyl)pyrrolidin-3-yl)propanamide] | 0 | 4.2 | 50 | 50 | 162.2 to 163.3 |  |  |  |  |  |  | 
